The record followed here is US20250230155A1 (Vanderbilt University, priority 2021, published 2025).

The target of this test is T1, human mAChR M4 (Homo sapiens, UniProt P08173).
T1 construct: expressed in transfected cells
T1 sequence (P08173 1-479): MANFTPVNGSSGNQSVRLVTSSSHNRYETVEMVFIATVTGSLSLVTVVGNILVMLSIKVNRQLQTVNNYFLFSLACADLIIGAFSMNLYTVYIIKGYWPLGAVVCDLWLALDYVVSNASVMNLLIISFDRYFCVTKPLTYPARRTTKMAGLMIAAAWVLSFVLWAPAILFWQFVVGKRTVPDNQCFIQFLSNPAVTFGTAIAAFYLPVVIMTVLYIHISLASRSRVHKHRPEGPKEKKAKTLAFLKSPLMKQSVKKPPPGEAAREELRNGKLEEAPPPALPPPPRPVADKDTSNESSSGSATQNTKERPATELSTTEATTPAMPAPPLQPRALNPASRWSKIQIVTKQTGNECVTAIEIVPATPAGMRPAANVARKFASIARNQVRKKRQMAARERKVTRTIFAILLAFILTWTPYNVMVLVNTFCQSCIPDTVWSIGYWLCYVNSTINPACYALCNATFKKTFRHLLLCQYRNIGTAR
The test can be described thus: mAChR M4 cell-based functional assay (calcium mobilization, CHO-K1 hM4-Gqi5 cells). Conditions: for EC50: positive allosteric modulator activity, increase in the EC20 acetylcholine response, CHO-K1 hM4-Gqi5 cells, read-out: Human M4 EC50. How it is done:
Human and rat M4 cDNAs, along with the chimeric G protein Gqi5, were transfected into Chinese hamster ovary (CHO-K1) cells purchased from the American Type Culture Collection using Lipofectamine2000. hM4-Gqi5 cells were grown in Ham's F-12 medium containing 10% heat-inactivated fetal bovine serum (FBS), 20 mM HEPES, 50 μg/mL G418 sulfate, and 500 μg/mL Hygromycin B. rM4-Ggi5 cells were grown in DiVEM containing 10% heat-inactivated FBS, 20 mM THEPES, 400 μμg/mL G418 sulfate, and 500 μμg/mL Hygromycin B.
For high throughput measurement of agonist-evoked increases in intracellular calcium, CHO-K1 cells stably expressing muscarinic receptors were plated in growth medium lacking G418 and hygromycin at 15,000 cells/20 μL/well in Greiner 384-well black-walled, tissue culture (TC)-treated, clear-bottom plates (VWR). Cells were incubated overnight at 37° C. and 5% CO2. The next day, cells were washed using an ELX 405 (BioTek) with assay buffer; the final volume was then aspirated to 20 μL. Next, 20 μL of a […] of Fluo-4/acetoxymethyl ester (Invitrogen, Carlsbad, CA), prepared as a 2.3 mM stock in DMSO and mixed in a 1:1 ratio with 10% (w/v) Pluronic F-127 and diluted in assay buffer, was added to the wells and the cell plates were incubated for 50 min at 37° C. and 5% C02. Dye was removed by washing with the ELX 405 and the final volume was aspirated to 20 μL. Compound master plates were formatted in an 11 point concentration-response curve (CRC) format (1:3 dilutions) in 100% DMSO with a starting concentration of 10 mM using a BRAVO liquid handler (Agilent). Test compound CRCs were then transferred to daughter plates (240 nL) using the Echo acoustic plate reformatter (Labcyte, Sunnyvale, CA) and then diluted into assay buffer (40 μL) to a 2× stock using a Thermo Fisher Combi (Thermo Fisher Scientific, Waltham, MA).
Calcium flux was measured using the Functional Drug Screening System (FDSS) 6000 or 7000 (Hamamatsu Corporation, Tokyo, Japan) as an increase in the fluorescent static ratio. Compounds were applied to cells (20 μL, 2×) using the automated system of the FDSS at 2-4 seconds into the protocol and the data were collected at 1 Hz. At 144 seconds, 10 μL of an EC20 concentration of the muscarinic receptor agonist acetylcholine was added (5×), followed by the addition of 12 μL of an EC80 concentration of acetylcholine at the 230 second time point (5×). Agonist activity was analyzed as a concentration-dependent increase in calcium mobilization upon compound addition. Positive allosteric modulator activity was analyzed as a concentration-dependent increase in the EC20 acetylcholine response. Antagonist activity was analyzed as a concentration-dependent decrease in the EC80 acetylcholine response. Concentration-response curves were generated using a four-parameter logistical equation in XLFit curve fitting software (IDBS, Bridgewater, NJ) for Excel (Microsoft, Redmond, WA) or Prism (GraphPad Software, Inc., San Diego, CA).
Compounds were synthesized as described above. Activity (EC50 and Emax) was determined in the mAChR M4 cell-based functional assay as described above and the data are shown in Table 2. The compound number corresponds to the compound numbers used in Table 1.
Background: Calcium flux is commonly read through the fluorescence of an indicator in the cells.

Setting [1] is: % ACh maximum at 30 μM, human M4.
Setting [2] is: CHO-K1, % ACh maximum at 30 μM, human M4.

On to `Cc1cc(C#N)cnc1N1Cc2cc(N3CCOCC3)cnc2C(C)C1` (single isomer, unassigned) [Example 406, 5-methyl-6-(8-methyl-3-morpholino-7,8-dihydro-1,6-naphthyridin-6(5H)-yl)nicotinonitrile], for which the EC50 (usually the concentration at which the effect is half-maximal) was 326 nM. In addition, the maximum response (Emax) (commonly the maximal effect, on the per cent scale that the assay sets) under setting [1] is reported as 96%.

In the case of `Cc1cc(C#N)nnc1N1Cc2cc(N3CCOCC3)cnc2C(C)C1` (single isomer, unassigned) [Example 407, 5-methyl-6-(8-methyl-3-morpholino-7,8-dihydro-1,6-naphthyridin-6(5H)-yl)pyridazine-3-carbonitrile], the EC50 worked out at 611 nM. Besides, under setting [2], the Emax at 30 µM was 91%.

For `Cc1cc(C#N)cnc1N1Cc2cc(N3CCOCC3)cnc2C(C)C1` (single isomer, unassigned) [Example 408, 5-methyl-6-(8-methyl-3-morpholino-7,8-dihydro-1,6-naphthyridin-6(5H)-yl)nicotinonitrile], the EC50 was 685 nM. In addition, the Emax under setting [1] turned out to be 65%.

For the compound `Cc1cc(C#N)cnc1N1CCc2ncc(N3CCCC3)cc2C1` [Example 1], the EC50 came out at 286 nM. Also, the Emax at 30 µM under setting [2] was determined as 86%.

For the compound `Cc1cc(C#N)cnc1N1CCc2ncc(Nc3ccc(F)cc3)cc2C1` [Example 2], the EC50 amounted to 457 nM. In addition, the Emax at 30 µM under setting [2] is 85%.

Take `COc1ccc(CNc2cnc3c(c2)CN(c2ncc(C#N)cc2C)CC3)cc1F` [Example 5]: the 50% effective concentration (EC50) stood at 2400 nM. Further, the Emax at 30 µM under setting [2] came to 63%.

On to `Cc1cc(C#N)cnc1N1CCc2ncc(Nc3ccccn3)cc2C1` [Example 6], for which the EC50 amounted to 223 nM. In addition, under setting [2], the Emax at 30 µM stood at 77%.

`Cc1cc(C#N)cnc1N1CCc2ncc(Nc3ccccc3F)cc2C1` [Example 7]: the half-maximal effective concentration (EC50) was 90.5 nM. Further, the Emax at 30 µM under setting [2] is 94%.

For the compound `Cc1cc(C#N)cnc1N1CCc2ncc(NCC3CCCO3)cc2C1` (centres unmarked) [Example 9], the EC50 is 785 nM. Also, the maximum response (Emax) at 30 µM under setting [2] turned out to be 76%.

As to `Cc1c(C#N)nnc(N2CCc3ncc(-c4ccn(CC5CC5)n4)cc3C2)c1C` [Example 10], the EC50 was found to be 240 nM. For the same compound, the maximum response (Emax) (CHO-K1) came out at 56%.

For the compound `Cc1cc(-c2cnc3c(c2)CN(c2nnc(C#N)c(C)c2C)CC3)ccn1` [Example 12], the EC50 came out at 273 nM. Moreover, under setting [2], the Emax is 67%.

For the compound `Cc1c(C#N)nnc(N2CCc3ncc(-c4ccc5ncn(C)c5c4)cc3C2)c1C` [Example 17], the EC50 was 560 nM. Under setting [2], the Emax at 30 µM is 33%.

As for `Cc1c(C#N)nnc(N2CCc3ncc(Nc4c(F)cccc4Cl)cc3C2)c1C` [Example 33], the EC50 amounted to 197 nM. For the same compound, the Emax at 30 µM under setting [2] was determined as 66%.

Turning to `Cc1c(C#N)nnc(N2CCc3ncc(Nc4cccc(Cl)c4F)cc3C2)c1C` [Example 36], the EC50 worked out at 698 nM. Further, the Emax at 30 µM under setting [2] is 66%.

For the compound `Cc1ccc(F)c(Nc2cnc3c(c2)CN(c2nnc(C#N)c(C)c2C)CC3)c1` [Example 37], the EC50 came out at 438 nM. In addition, the Emax at 30 µM under setting [2] turned out to be 57%.

With `Cc1nn(C)c(C)c1-c1cnc2c(c1)CN(c1nnc(C#N)c(C)c1C)CC2` [Example 296, 4,5-dimethyl-6-(3-(1,3,5-trimethyl-1H-pyrazol-4-yl)-7,8-dihydro-1,6-naphthyridin-6(5H)-yl)pyridazine-3-carbonitrile], the EC50 was found to be 191 nM. The Emax at 30 µM under setting [2] was 101%.

As for `Cc1noc(C)c1-c1cnc2c(c1)CN(c1nnc(C#N)c(C)c1C)CC2` [Example 297, 6-(3-(3,5-dimethylisoxazol-4-yl)-7,8-dihydro-1,6-naphthyridin-6(5H)-yl)-4,5-dimethylpyridazine-3-carbonitrile], the 50% effective concentration (EC50) worked out at 267 nM. The Emax at 30 µM under setting [2] came out at 83%.

Turning to `Cc1ccc(-c2cnc3c(c2)CN(c2nnc(C#N)c(C)c2C)CC3)cn1` [Example 298, 4,5-dimethyl-6-(3-(6-methylpyridin-3-yl)-7,8-dihydro-1,6-naphthyridin-6(5H)-yl)pyridazine-3-carbonitrile], the EC50 was 530 nM. Also, the Emax at 30 µM under setting [2] was found to be 93%.

Consider `COc1ccc(-c2cnc3c(c2)CN(c2nnc(C#N)c(C)c2C)CC3)cn1` [Example 299, 6-(3-(6-methoxypyridin-3-yl)-7,8-dihydro-1,6-naphthyridin-6(5H)-yl)-4,5-dimethylpyridazine-3-carbonitrile], for which the EC50 worked out at 178 nM. In addition, the maximal response (Emax) at 30 µM under setting [2] came to 64%.

For the compound `Cc1c(C#N)nnc(N2CCc3ncc(Oc4ccc(F)cc4)cc3C2)c1C` [Example 300, 6-(3-(4-fluorophenoxy)-7,8-dihydro-1,6-naphthyridin-6(5H)-yl)-4,5-dimethylpyridazine-3-carbonitrile], the EC50 came out at 246 nM. Under setting [2], the Emax at 30 µM came out at 71%.

Turning to `Cc1c(C#N)nnc(N2CCc3ncc(-c4ccc(C5CC5)nc4)cc3C2)c1C` [Example 301, 6-(3-(6-cyclopropylpyridin-3-yl)-7,8-dihydro-1,6-naphthyridin-6(5H)-yl)-4,5-dimethylpyridazine-3-carbonitrile], the EC50 amounted to 265 nM. Further, the Emax at 30 µM under setting [2] came out at 57%.

`COc1ccc(Oc2cnc3c(c2)CN(c2nnc(C#N)c(C)c2C)CC3)cn1` [Example 302, 6-(3-((6-methoxypyridin-3-yl)oxy)-7,8-dihydro-1,6-naphthyridin-6(5H)-yl)-4,5-dimethylpyridazine-3-carbonitrile]: the EC50 stood at 1710 nM. The Emax at 30 µM under setting [2] is 48%.

Consider `Cc1c(C#N)nnc(N2CCc3ncc(C(F)(F)F)cc3C2)c1C` [Example 303, 4,5-dimethyl-6-(3-(trifluoromethyl)-7,8-dihydro-1,6-naphthyridin-6(5H)-yl)pyridazine-3-carbonitrile], for which the EC50 was 1600 nM. For the same compound, the maximum response (Emax) at 30 µM under setting [2] amounted to 48%.

Consider `Cc1cc(C#N)nnc1N1CCc2ncc(C(F)(F)F)cc2C1` [Example 304, 5-methyl-6-(3-(trifluoromethyl)-7,8-dihydro-1,6-naphthyridin-6(5H)-yl)pyridazine-3-carbonitrile], for which the EC50 was determined as 676 nM. Also, the Emax at 30 µM under setting [2] worked out at 93%.

For `Cc1cnc2c(c1)CN(c1nnc(C#N)cc1C)CC2` [Example 305, 5-methyl-6-(3-methyl-7,8-dihydro-1,6-naphthyridin-6(5H)-yl)pyridazine-3-carbonitrile], the EC50 was 537 nM. Further, the Emax (CHO-K1) worked out at 105%.

`Cc1cc(C#N)cnc1N1CCc2ncc(Nc3ccnn3C)cc2C1` [Example 306, 5-methyl-6-(3-((1-methyl-1H-pyrazol-5-yl)amino)-7,8-dihydro-1,6-naphthyridin-6(5H)-yl)nicotinonitrile]: the EC50 was determined as 23 nM. Further, under setting [2], the Emax at 30 µM is 109%.

For `Cc1cc(C#N)cnc1N1CCc2ncc(C(F)F)cc2C1` [Example 307, 6-(3-(difluoromethyl)-7,8-dihydro-1,6-naphthyridin-6(5H)-yl)-5-methylnicotinonitrile], the EC50 turned out to be 162 nM. Moreover, the Emax (CHO-K1) was found to be 100%.

As for `Cc1c(C#N)nnc(N2CCc3ncc(C(F)F)cc3C2)c1C` [Example 308, 6-(3-(difluoromethyl)-7,8-dihydro-1,6-naphthyridin-6(5H)-yl)-4,5-dimethylpyridazine-3-carbonitrile], the EC50 was determined as 405 nM. Moreover, under setting [2], the Emax at 30 µM is 94%.
